Assay results taken from patent US20240294659A1, “Method and Compositions for Inducing Differentiation of Myeloid Derived Suppressor Cell to Treat Cancer and Infectious Diseases” (OSE Immunotherapeutics, priority 2014, published 2024).

Legend:
[1] = system: rat MDSC; assay: Rat MDSC two-day culture with anti-SIRPα antibody, with or without GM-CSF, phenotype by flow cytometry; type: cell-based; conditions: two days, GM-CSF 10 ng/ml with or without anti-SIRPα 10 μg/ml (FIG. 4)
Text: Human blood MDSC were characterized and sorted by flow cytometry as follow: CD11b^+CD33^+HLA-DR^low/−CD14^+CD15^− for Mo-MDSC and CD11b^+CD33^+HLA-DR^− CD14^− CD15+ for PMN-MDSC. Rat blood and spleen MDSC were characterized and sorted by flow cytometry as CD11b^+MHC ClassII-NKRP1^int (both Mo-MDSC and PMN-MDSC was included in this phenotype). Mouse MDSC were characterize as follow: CD11b^+MHC Class II-Ly6C^high Ly6G^− for Mo-MDSC and CD11b^+MHC Class II-Ly6C^+Ly6G^+ for PMN-MDSC.
MDSC were purified by flow cytometry according to previously described phenotypes. Purity of cells sorted by flow cytometry was higher than 99%. Freshly purified MDSC were then seeded at 50×10^3 cells/well in 96-well flat-bottomed microtiter plates and cultured for two days in RPMI-1640 medium (supplemented with 2 mM L-glutamine, 100 U/ml penicillin, 0.1 mg/ml streptomycin, 10% heat-inactivated fetal calf serum, 1% nonessential amino acids, 5 mM HEPES, 1 mM sodium pyruvate, and 1 μM 2-mercaptoethanol) and with irrelevant control antibody or anti-SIRPα monoclonal antibody (clone SE7C2 (Santa Cruz Biotechnology) and SE5A5 (Biolegend) for human MDSC or clone ED9 (AbD Serotec) for rat MDSC) at 10 μg/ml. In a different setting, recombinant GM-CSF (10 ng/ml) was also added to force the macrophages/dendritic cells differentiation. […]

[2] = system: Hepa1.6 mouse hepatoma cells; assay: Hepatocellular carcinoma mice model; type: in vivo; conditions: Sorafenib 40 mg/kg daily oral gavage, day 0 to day 28 (FIG. 10)
Protocol: Eight-weeks-old C57B1/6J male mice received 2.5×10^6Hepa1.6 mouse hepatoma cells in 100 μL through the portal vein, as previously described (Gauttier et al., 2014). Four and eight days after tumour inoculation, mice were injected intraperitoneally with 100 μg of rat anti-CD137 mAb (4-1BB mAb), or with 300 μg of anti-mouse SIRPα monoclonal antibody (clone P84 from Merck Millipore) or both antibodies or an irrelevant control antibody (clone 3G8) 3 times/week for 4 weeks (FIG. 17A) or with 200 μg of the anti-PD-LI mAb (clone 10F-9G2 from BioXCell) or received both antibodies (anti-SIRPα+anti-PDL1) for 4 weeks (FIG. 17B). Sorafenib (Nexavar-Bayer) treated mice received daily 100 μl oral gavage of 40 mg/kg from day 0 to day 28 (FIG. 10). The overall survival was analyzed. Some mice were sacrificed at day 14 after tumor inoculation for leukocytes tumor infiltration quantification and characterization by isolation of non-parenchymal cells of the liver by a Percoll gradient and FACS analysis.

Molecule | differentiation of MDSC (MHC Class II, CD103, CD11b, CD80) [1] | mice rescued (overall survival) [2]
GM-CSF: recombinant GM-CSF added to force the macrophages/dendritic cells differentiation | induce the differentiation of MDSC in mature MHC Class II^+ myeloids cells | 
CNC(=O)c1cc(Oc2ccc(NC(=O)Nc3ccc(Cl)c(C(F)(F)F)c3)cc2)ccn1 [Sorafenib] |  | 60%
